Assay results from paper PMC11635053, “Development of a homotrimeric PSMA radioligand based on the NOTI chelating platform” (EJNMMI Radiopharmacy and Chemistry, 2024).
Where two headings read alike, the source gives them in different places.

Key:
[1] = target: T1, PSMA (Homo sapiens, UniProt Q04609); assay: Competitive binding assay in LNCaP cells with [177Lu]Lu-PSMA-617 as radioligand; conditions: for IC50: LNCaP cells, radioligand [177Lu]Lu-PSMA-617, 2 h at r.t., read-out: IC50 (half maximum competitive inhibitory concentration)
T1 construct: host or cells: LNCaP
T1 sequence (Q04609 whole entry): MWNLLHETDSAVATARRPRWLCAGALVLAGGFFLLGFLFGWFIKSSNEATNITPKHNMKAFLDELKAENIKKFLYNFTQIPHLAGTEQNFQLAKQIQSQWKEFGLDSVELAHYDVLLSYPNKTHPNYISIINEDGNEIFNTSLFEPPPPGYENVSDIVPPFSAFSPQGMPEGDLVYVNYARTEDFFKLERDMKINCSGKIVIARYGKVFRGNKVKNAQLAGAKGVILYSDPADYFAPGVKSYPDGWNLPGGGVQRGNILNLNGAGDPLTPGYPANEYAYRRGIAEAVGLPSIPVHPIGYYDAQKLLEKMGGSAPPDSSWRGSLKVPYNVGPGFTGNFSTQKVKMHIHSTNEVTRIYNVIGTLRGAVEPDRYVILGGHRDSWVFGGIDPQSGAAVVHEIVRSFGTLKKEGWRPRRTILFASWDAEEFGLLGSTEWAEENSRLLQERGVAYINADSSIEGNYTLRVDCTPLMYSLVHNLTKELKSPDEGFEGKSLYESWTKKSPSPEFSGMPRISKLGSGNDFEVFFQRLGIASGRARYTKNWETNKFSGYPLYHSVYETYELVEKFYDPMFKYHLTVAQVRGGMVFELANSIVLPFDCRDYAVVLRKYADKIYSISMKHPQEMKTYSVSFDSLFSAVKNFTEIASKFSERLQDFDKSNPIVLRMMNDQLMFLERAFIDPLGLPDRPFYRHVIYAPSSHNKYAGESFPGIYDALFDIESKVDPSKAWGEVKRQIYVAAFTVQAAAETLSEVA
Experimental: In order to establish a structure–activity relationship, the binding affinity of the metal-free and ^natGa-complexes of the conjugates 7, 8, and 9 were determined in the PSMA-positive human prostate cancer cell line LNCaP by a competitive binding assay as previously reported using [^177Lu]Lu-PSMA-617 as the radioligand (Stemler et al. [2021]). The conjugate Glu-CO-Lys-Ahx-HBED-CC (PSMA-11) was included as the control.
The competitive binding assay was carried out using a MultiScreen®HTS Vacuum Manifold system (Merck, Germany) with 96-well filter plates. Serial dilutions of the metal-free conjugates and corresponding ^natGa complexes were prepared to obtain 7 final concentrations ranging from 0 to 1000 nM for each compound. PSMA-11 was also tested as control. Experiments were performed twice in triplicate for each compound. Freshly prepared ^177Lu-labeled PSMA-617 was used as the radioligand. A volume of 1 μL of [^177Lu]Lu-PSMA-617 stock solution (2.83 μM) was added into each tube of the dilution series (radioligand concentration 3.14 nM). For the experiment, 10^5 LNCaP cells were seeded into each well. The final volume of each well was 150 μL (100 μL cells in medium + 50 μL inhibitor in PBS). The experiment was incubated for 2 h at r.t. in a plate shaker. Then, the supernatants were removed by vacuum. Wells were furthermore washed out with ice-cold PBS (3 × 200 μL, pH 7.4). The filters were punched into tubes for the subsequent quantification of the activity in a Gamma-counter. A nonlinear regression algorithm was applied by the software GraphPad Prism to determine the specific inhibitory concentrations of 50% for the tested radiotracers.

[2] = test system: PSMA-positive LNCaP cells; assay: Cell uptake / internalization of 68Ga-labeled conjugates in LNCaP cells; type: cell-based, human; conditions: 1 h incubation; for Cell uptake: in words
Experimental: Next, the cellular uptake of the ^68Ga-labeled conjugates 7, 8, and 9 as well as [^68Ga]Ga-PSMA-11 was determined in PSMA-positive LNCaP cells.
LNCaP cells were seeded (10^6 cells well^−1) in poly-L-lysine coated 6-well plates 24 h before the experiment. Experiments were performed twice in triplicate for each compound. The radiolabeling solutions of [^68Ga]Ga-7, [^68Ga]Ga-8, [^68Ga]Ga-9, and [^68Ga]Ga-PSMA-11 were first diluted with PBS (pH 7.4) to a concentration of […]. 100 µL of this dilution were added to 3900 µL PBS (pH 7.4) to obtain final stock solutions of each radiolabeled compound (0.025 nmol mL^−1).
On the day of the experiment, the medium was replaced by fresh preheated medium (1.4 mL w/o blocking, 1.3 mL with blocking) and the cells incubated for 1 h at 37 °C. Next, the blocking solution was added (100 μL, 2500 pmol) to the corresponding wells. Finally, the corresponding radiolabeled conjugate (100 μL, 2.5 pmol) was added to a final assay volume of 1.5 mL well^−1. After 1 h incubation time, the supernatants were removed and the cells were washed carefully with ice-cold PBS buffer (2 × 1 mL, pH 7.4) followed by a subsequent glycine–HCl washing step (50 mM, pH 2.8, 2 × 1 mL well^−1). Cells were incubated with the glycine–HCl solution for 4 min at r.t. Next, corresponding fractions were transferred into counting tubes. Subsequently, the cells were lysed by adding NaOH (2 × 1 mL well^−1, 0.1 M) and the lysed fractions were also transferred into counting tubes. As standards, 100 µL of each radiolabeled conjugate stock solution (0.025 nmol mL^−1, 2.5 pmol) were pipetted into counting tubes containing 2 mL PBS buffer. The activity of the standards, the surface bound fractions and the internalized fractions were measured in a Gamma counter. Means were calculated and subtracted by the background. The percentages of unspecific and specific cell-surface bound and internalized activity were calculated from the standards.

[3] = test system: LNCaP xenograft bearing mice; conditions: 1 h p.i., cited from earlier work
[4] = test system: patient with metastatic prostate cancer; assay: Clinical PET/CT imaging; conditions: patient, 1 h p.i.
Experimental: PET/CT was performed approximately 1, 2, and 3 h after intravenous injection of 107 MBq of [^68Ga]Ga-9 and 1 h after injection of 113 MBq [^68Ga]Ga-PSMA-11 in a patient with metastatic prostate cancer. Whole body imaging extending from vertex to mid-femur was performed in 3D-ToF mode on a Biograph mCT 40 scanner (Siemens Medical Solutions, Knoxville, TN, USA) with an extended field of view of 21.4 cm. PET acquisition time was 3 min bed position^−1. Low-dose CT acquisition was performed for attenuation correction and anatomical localization using an X-ray tube voltage of 120 kV and a modulation of the tube current (maximal tube current: 30 mA; CARE Dose 4D software Siemens Healthineers, Erlangen, Germany) followed by reconstruction with a soft tissue reconstruction kernel (Bf37) to a slice thickness of 5 mm (increment 2–4 mm). PET emission data were additionally corrected for decay, randoms and scatter and reconstructed applying an iterative 3D ordered subset expectation maximization algorithm (3 iterations; 21 subsets) withGaussian filtering to transaxial resolution of 5 mm at full width at half maximum. The matrix size was 200 × 200 mm and the reconstructed pixel size was 5.0 mm.

[5] = type: in vitro ADME; conditions: 2 h
Experimental: 100 μL of the radiolabeling solution of each ^68Ga-labeled tracer were added to preheated (37 °C) 1000 μL human serum (male, AB, Sigma Aldrich, USA) in triplicates and incubated at 37 °C. At 1 and 2 h, 100 µL aliquots were taken, mixed with 100 µL ice-cold acetonitrile, and centrifuged at 4 G for 5 min at 4 °C. The corresponding filtrates were kept on ice until HPLC analysis. The supernatants were then analyzed by radio-RP-HPLC and fractions of intact compounds were calculated from the HPLC chromatograms. (gradient 4,Gamma-ray detector: 100–900 keV, injection volume: 20 μl). tR ([^68Ga]Ga-7) = 12.1 min, tR ([^68Ga]Ga-8) = 14.4 min, tR ([^68Ga]Ga-9) = 25.2 min.

[6] = test system: human serum proteins; assay: in vitro; type: in vitro ADME; conditions: male; for Protein binding: 1 h; for fraction unbound at 1 h: Protein binding
Experimental: To determine the protein bound fraction of each trimeric radiotracer, 100 μL of the radiolabeling solution of the corresponding ^68Ga-labeled conjugate were added to preheated (37 °C) 1000 μL human serum (male, AB, Sigma Aldrich, USA) in triplicates. Samples were incubated for 1 h at 37 °C. After cooling to r.t., the samples were centrifuged utilizing molecular cutoff (30 kDa) centrifuge tubes at 4 G for 5 min at 4 °C. The filters were additionally rinsed with PBS buffer (2 × 100 μL). The background subtracted activity in the filters and the filtrates were determined in a Gamma counter and the percentage of protein bound fractions were calculated.

[7] = test system: patients; conditions: cited from earlier work; for Injected activity excreted: patients, ref Kurth et al. [2018]
[8] = 2.5 pmol per 10^6 cells, 68Ga-labeled
[9] = lesions listed as 1 × prostate, 2 × lymph node metastasis

## O=C(O)CC[C@H](NC(=O)N[C@@H](CCCCNC(=O)CCCCn1ccnc1CN1CCN(Cc2nccn2CCCCC(=O)NCCCC[C@H](NC(=O)N[C@@H](CCC(=O)O)C(=O)O)C(=O)O)CCN(Cc2nccn2CCCCC(=O)NCCCC[C@H](NC(=O)N[C@@H](CCC(=O)O)C(=O)O)C(=O)O)CC1)C(=O)O)C(=O)O [Compound 7, (2S,2'S,2''S)−2,2',2''-(((((1S,1'S,1''S)-((5,5',5''-(((1,4,7-triazonane-1,4,7-triyl)tris(methylene))tris(1H-imidazole-2,1-diyl))tris(pentanoyl))tris(azanediyl))tris(1-carboxypentane-5,1-diyl))tris(azanediyl))tris(carbonyl))tris(azanediyl))triglutaric acid]
[1]
  IC50: 264 nM

## O=C(O)CC[C@H](NC(=O)N[C@@H](CCCCNC(=O)CCCCCNC(=O)CCCCn1ccnc1CN1CCN(Cc2nccn2CCCCC(=O)NCCCCCC(=O)NCCCC[C@H](NC(=O)N[C@@H](CCC(=O)O)C(=O)O)C(=O)O)CCN(Cc2nccn2CCCCC(=O)NCCCCCC(=O)NCCCC[C@H](NC(=O)N[C@@H](CCC(=O)O)C(=O)O)C(=O)O)CC1)C(=O)O)C(=O)O [Compound 8, (3S,3'S,3''S,7S,7'S,7''S)−24,24',24''-(((1,4,7-triazonane-1,4,7-triyl)tris(methylene))tris(1H-imidazole-2,1-diyl))tris(5,13,20-trioxo-4,6,12,19-tetraazatetracosane-1,3,7-tricarboxylic acid)]
[1]
  IC50: 65 nM
[1]; LNCaP competitive binding, metal-free conjugate
  Factor by which affinity is lower compared to PSMA-11: ~ 3

## O=C(O)CC[C@H](NC(=O)N[C@@H](CCCCNC(=O)[C@H](Cc1ccc2ccccc2c1)NC(=O)[C@H]1CC[C@H](CNC(=O)CCCCn2ccnc2CN2CCN(Cc3nccn3CCCCC(=O)NC[C@H]3CC[C@H](C(=O)N[C@@H](Cc4ccc5ccccc5c4)C(=O)NCCCC[C@H](NC(=O)N[C@@H](CCC(=O)O)C(=O)O)C(=O)O)CC3)CCN(Cc3nccn3CCCCC(=O)NC[C@H]3CC[C@H](C(=O)N[C@@H](Cc4ccc5ccccc5c4)C(=O)NCCCC[C@H](NC(=O)N[C@@H](CCC(=O)O)C(=O)O)C(=O)O)CC3)CC2)CC1)C(=O)O)C(=O)O [Compound 9]
[1]
  IC50: 5.9 nM
[2]; [8]
  Cell internalization: 17.8 ± 2.5%

## O=C(O)CCc1ccc(O)c(CN(CCN(CC(=O)O)Cc2cc(CCC(=O)NCCCCCC(=O)NCCCC[C@H](NC(=O)N[C@@H](CCC(=O)O)C(=O)O)C(=O)O)ccc2O)CC(=O)O)c1 [PSMA-11, Glu-CO-Lys-Ahx-HBED-CC, reference compound]
[1]
  IC50: 18.5 nM

## O=C([O-])CN(CCN(CC(=O)[O-])Cc1cc(CCC(=O)NCCCCCC(=O)NCCCC[C@H](NC(=O)N[C@@H](CCC(=O)O)C(=O)O)C(=O)O)ccc1[O-])Cc1cc(CCC(=O)O)ccc1[O-].[68Ga+3].[OH3+] [[^68Ga]Ga-PSMA-11, reference compound]
[2]; [8]
  Cell internalization: 5.2 ± 0.2%
  Cell-surface bound fraction: 4.5 ± 0.2%
[3]; ref Benešová et al. ([2015])
  Kidney uptake: 187.4 ± 25.3 % IA g^−1
  Tumor uptake: 10.58 ± 4.5 % IA g^−1
  Tumor-to-kidney ratio: 0.06
[3]; ref Eder et al. ([2012])
  Kidney uptake: 139.4 ± 21.4 % IA g^−1
  Liver uptake: 0.87 ± 0.05 % IA g^−1
  Tumor uptake: 7.70 ± 1.45 % IA g^−1
  Tumor-to-kidney ratio: 0.06
  Tumor-to-liver ratio: 8.85
[4]
  SUVpeak in the parotid gland: 37.0
  SUVpeak in the submandibular gland: 31.6
  SUVpeak kidneys: 126.3
  SUVpeak liver: 8.5
[4]; [9]
  SUVpeak, first target lesion: 35.3
  SUVpeak, second target lesion: 16.3
  SUVpeak, third target lesion: 20.6

## O=C(O)CC[C@H](NC(=O)N[C@@H](CCCCNC(=O)CCCCn1ccnc1CN1CCN(Cc2nccn2CCCCC(=O)NCCCC[C@H](NC(=O)N[C@@H](CCC(=O)O)C(=O)O)C(=O)O)CCN(Cc2nccn2CCCCC(=O)NCCCC[C@H](NC(=O)N[C@@H](CCC(=O)O)C(=O)O)C(=O)O)CC1)C(=O)O)C(=O)O [^nat/68Ga-7, metal not drawn]
[5]
  Metabolic stability in human serum: no significant degradation
[6]
  Protein binding: 63.8 ± 4.0%
  fraction unbound at 1 h: ~0.36
[1]
  IC50: 450 nM
[2]
  Cell uptake: negligible

## O=C(O)CC[C@H](NC(=O)N[C@@H](CCCCNC(=O)CCCCCNC(=O)CCCCn1ccnc1CN1CCN(Cc2nccn2CCCCC(=O)NCCCCCC(=O)NCCCC[C@H](NC(=O)N[C@@H](CCC(=O)O)C(=O)O)C(=O)O)CCN(Cc2nccn2CCCCC(=O)NCCCCCC(=O)NCCCC[C@H](NC(=O)N[C@@H](CCC(=O)O)C(=O)O)C(=O)O)CC1)C(=O)O)C(=O)O [^nat/68Ga-8, metal not drawn]
[5]
  Metabolic stability in human serum: no significant degradation
[6]
  Protein binding: 68.2 ± 1.5%
  fraction unbound at 1 h: ~0.35
[1]
  IC50: 90 nM
[2]; [8]
  Cell internalization: 0.08 ± 0.02%
[2]
  Cell uptake: negligible

## [^177Lu]Lu-PSMA-617
[3]; ref Benešová et al. ([2015])
  Kidney uptake: 137.2 ± 77.8 % IA g^−1
  Liver uptake: 0.22 ± 0.08 % IA g^−1
  Tumor uptake: 11.20 ± 4.17 % IA g^−1
  Tumor-to-kidney ratio: 0.08
  Tumor-to-liver ratio: 50.91
[7]; PSMA targeted radioligand therapy, ref Kratochwil et al. [2016]
  Patients that may not respond to therapy: more than 30%
[7]; by 12 h
  Injected activity excreted: ~70%
[7]; within 4 h of administration
  Injected activity excreted: 50%
